Data reported in PubChem BioAssay (NCI).
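Results reflect a 48-hour exposure of cells in 96-well plates to compound at five concentrations. GI50 marks 50% less growth. At the TGI there is no net growth.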

Tests used:
Test in all cases: growth of human tumour cells (NCI), 48 h
786-0 renal = test system: 786-0 renal
ACHN renal = test system: ACHN renal
HCC-2998 colon = test system: HCC-2998 colon
KM12 colon = test system: KM12 colon
OVCAR-4 ovarian = test system: OVCAR-4 ovarian
OVCAR-5 ovarian = test system: OVCAR-5 ovarian
SW-620 colon = test system: SW-620 colon
UACC-62 melanoma = test system: UACC-62 melanoma
UO-31 renal = test system: UO-31 renal

Structure (SMILES) | TGI (786-0 renal) | TGI (ACHN renal) | TGI (HCC-2998 colon) | TGI (KM12 colon) | TGI (OVCAR-4 ovarian) | TGI (OVCAR-5 ovarian) | TGI (SW-620 colon) | TGI (UACC-62 melanoma) | TGI (UO-31 renal) | GI50 (786-0 renal) | GI50 (ACHN renal) | GI50 (HCC-2998 colon) | GI50 (KM12 colon) | GI50 (OVCAR-4 ovarian) | GI50 (OVCAR-5 ovarian) | GI50 (SW-620 colon) | GI50 (UACC-62 melanoma) | GI50 (UO-31 renal)
O=C(c1ccc(NCN2C(=O)CCC2=O)cc1)c1ccc(NCN2C(=O)CCC2=O)cc1 | > 100 µM | > 100 µM | > 100 µM | > 100 µM | > 100 µM | > 100 µM | > 100 µM | > 100 µM | > 100 µM |  |  |  |  |  |  |  |  | 
CNS(=O)(=O)NN(C)S(=O)(=O)c1ccc(Br)cc1 | > 100 µM | > 100 µM | > 100 µM | > 100 µM | > 100 µM |  | > 100 µM | > 100 µM | > 100 µM |  |  |  |  |  |  |  |  | 
O[C@]12CCCC[C@H]1CCC2 | > 100 µM | > 100 µM | > 100 µM | > 100 µM | > 100 µM | > 100 µM | > 100 µM | > 100 µM | > 100 µM |  |  |  |  |  |  |  |  | 
CC(=O)O[C@@H]1CC(C)C2CC2C2=C(C(O)OC2O)[C@@H]1C(C)CCC=C(C)C (stereo partly drawn) | 40.3 µM | 90.5 µM | 40.5 µM |  | 71.2 µM | 35.1 µM | 51.2 µM | 67.3 µM | 47.6 µM |  |  |  |  |  |  |  |  | 
COc1ccc(/C=C2\CNC/C(=C\c3ccc(OC)cc3)C2=O)cc1 | > 100 µM | > 100 µM | > 100 µM | > 100 µM | > 100 µM | > 100 µM | > 100 µM | > 100 µM | > 100 µM |  |  |  |  |  |  |  |  | 
N#CC1(c2nc3ccccc3o2)C(=O)C(=O)N(c2ccc(Cl)c(Cl)c2)C(=O)C1=O | > 100 µM | > 100 µM | > 100 µM | > 100 µM | > 100 µM | > 100 µM | > 100 µM |  | > 100 µM |  |  |  |  |  |  |  |  | 
Cc1ccc(C2=Nc3ccccc3NC(=O)C2)cc1 | > 100 µM | > 100 µM | > 100 µM | > 100 µM | > 100 µM | > 100 µM | > 100 µM | > 100 µM | > 100 µM |  |  |  |  |  |  |  |  | 
O=Cc1[nH]c2ccccc2c1Br | 66.3 µM | 82.7 µM | > 100 µM | 50 µM | > 100 µM | > 100 µM | > 100 µM | 33.7 µM | 97 µM |  |  |  |  |  |  |  |  | 
CCCCC(=O)[O-].N.N.N.N.N.[Co+3].[O-][Cl+3]([O-])([O-])[O-] | > 100 µM | > 100 µM | > 100 µM | > 100 µM | > 100 µM | > 100 µM | > 100 µM | > 100 µM | > 100 µM | > 100 µM | > 100 µM | > 100 µM | > 100 µM | > 100 µM | > 100 µM | > 100 µM | > 100 µM | > 100 µM
Cc1nc(Nc2ccc(F)c(Cl)c2)sc1C(=O)O | 3.98 µM | 3.24 µM |  |  | 9.12 µM | 4.1 µM | 6.31 µM | 2.62 µM | 2.82 µM | 1.74 µM | 1.52 µM |  |  | 1.74 µM | 1.7 µM | 2.32 µM | 1.17 µM | 1.16 µM
CN(C)c1ccc(/C=C2\N=C(c3ccc(N)cc3)OC2=O)cc1 | > 100 µM | > 100 µM | > 100 µM | > 100 µM | > 100 µM | > 100 µM | > 100 µM | > 100 µM | > 100 µM |  |  |  |  |  |  |  |  | 
CC[O-].CC[O-].O=Nc1ccc2cc([O-])ccc2c1.O=Nc1ccc2cc([O-])ccc2c1.[Ti+4] | 3.05 µM | 2.96 µM | 14.2 µM | 4.65 µM | 3.2 µM | 3.84 µM | 4.06 µM |  | 3.63 µM | 1.61 µM | 1.58 µM | 3.3 µM | 1.94 µM | 1.76 µM | 2.36 µM | 1.97 µM | 2.44 µM | 1.78 µM
C=CCN=C1N=C(CC(=O)OCC)CS1 | > 100 µM | > 100 µM | > 100 µM | > 100 µM | > 100 µM | > 100 µM | > 100 µM | > 100 µM | > 100 µM |  |  |  |  |  |  |  |  | 
Cc1c(C(=O)CC(=O)C(=O)Nc2cccc(C(F)(F)F)c2)[n+](=O)c2ccccc2n1[O-] | 21.5 µM | 15.9 µM | 16.1 µM | 21.7 µM | 13.3 µM | 19.5 µM | 12.2 µM | 7.55 µM | 30.2 µM |  |  |  |  |  |  |  |  | 
Cc1ccc(S(=O)(=O)OCC23CCC(C4CC42)C2CC23)cc1 (stereo not drawn) | > 100 µM | > 100 µM | > 100 µM |  | > 100 µM | > 100 µM | > 100 µM | > 100 µM | > 100 µM |  |  |  |  |  |  |  |  | 
